Results published in US20100331233A1, “CRYSTAL OF XPA AND ERCC1 COMPLEX AND USES THEREOF” (priority 2007, published 2010).
{FAM} = 6-carboxyfluorescein (6-FAM) label

What was measured:
[1] = molecular target: T1, central domain of ERCC1 (ERCC196-214) (Homo sapiens, UniProt P07992); settings: Tsodikov et al., 2005; direct titration; read-out: equilibrium binding constant for DNA binding to the central domain of ERCC1; cited from earlier work
T1 construct: His6 (N); made in house; host or cells: E. coli BL21(DE3)
T1 sequence (P07992 96-214): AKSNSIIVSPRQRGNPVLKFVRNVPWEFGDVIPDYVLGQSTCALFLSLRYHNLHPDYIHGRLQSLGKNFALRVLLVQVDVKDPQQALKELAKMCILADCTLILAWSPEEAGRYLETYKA

[2] = system: NER activity in XP-A (XP2OS) cell extracts; assay: In vitro NER assay in XP-A (XP2OS) cell extract supplemented with wild-type or mutant XPA protein; assay type: biochemical; settings: XPA-deficient cell extract, 200 and 800 nM XPA, cisplatin crosslink plasmid
Excerpt: In Vitro NER assay. […] The wild-type, […], […] and […]/[…]

DNA three-way junction = assay: DNA binding assay (band shift) with 5'-labeled DNA three-way junction; settings: 1 nM DNA, 4-150 nM XPA
Method: DNA binding assays. The three-way junction DNA substrate described previously (substrate 7 in Table 1 of Hohl et al., 2003, J. Biol. Chem., 278, 19500-19508) was 5′-^32P-end labeled and incubated at 1 nM concentration with various amounts of XPA in EMSA buffer (25 mM Hepes·KOH pH 8.0, 30 mM KCl, 10% glycerol, 1 mM DTT, 1 mM EDTA, 0.1 mg/ml BSA) at a reaction volume of 15 μl. After equilibration at room temperature for 30 min, the samples were loaded on a 5% (37.5:1) native polyacrylamide gel containing 0.5×TBE and electrophoresed at 90 V for 2 hrs. Gels were dried and the radioactive bands visualized by autoradiography.

[3] = molecular target: T2, ERCC1 central domain (ERCC1 96-214 / 92-214) (Homo sapiens, UniProt P07992 SEQ:96-214); assay: FP; 2.33 uM ERCC1, 50 nM DNA; XPA67-80 peptide competes (EC50 micromolar); 20 mM Tris pH 8.0, 20 mM NaCl, 2 mM bME; settings: tags: N-terminal His6; label: 5' 6-FAM
T2 sequence: T1 sequence (P07992 96-214)

[4] = molecular target: T3, XPA67-80 peptide (KIIDTGGGFILEEE) (Homo sapiens, UniProt P23025 SEQ:67-80); assay: FP; peptide does not detectably bind DNA (data not shown); nonspecific anisotropy increase and quenching above 30 uM; settings: protein: synthetic; tags: synthetic peptide, solid phase, HPLC-purified; label: 5' 6-FAM
T3 chain: KIIDTGGGFILEEE

For “DNA: 5' 6-FAM-labeled single-stranded 40mer DNA, 5'-CCGGTGGCCAGCGCTCGGCG(T)20 (DNA CCGGTGGCCAGCGCTCGGCGTTTTTTTTTTTTTTTTTTTT; DNA, 5' {FAM}, backbone not given here)”, the Kd [1] is given as 1.5 µM.

With “XPA-WT: purified full length wild-type XPA protein expressed in E. coli” the “NER activity restored by XPA protein” value [2] was “robust NER activity” and the “binding to DNA three-way junction” value (DNA three-way junction) was “bound with similar affinity”.

B1: 6FAM-labeled 40mer ssDNA (ssDNA)
DNA: CCGGTGGCCAGCGCTCGGCGTTTTTTTTTTTTTTTTTTTT
B1: binds [3]; no binding [4].
